Legend:
[1] = pKa measurement of Compound 1; type: physicochemical; conditions: measured pKa; free base
Excerpt: Compound 1 has a measured pKa of around 1 and typically exists in a free base form. Unless otherwise explicitly stated to the contrary, Compound 1 herein should be understood as existing in its free base form as opposed to a salt formed with an acid or base. The synthesis and utility of Compound 1 has been described in Applicant's previous applications, such as International Application Nos. PCT/CN2020/091274, filed May 20, 2020, published as WO2020/233592, PCT/CN2020/137276, filed Dec. 17, 2020, and PCT/CN2019/126230, filed Dec. 18, 2019, the contents of each of which are herein incorporated by reference in their entireties. […] PCT/CN2020/137276 and PCT/CN2019/126230 also describe various isolated forms, substantially pure forms, and/or solid forms of Compound 1 and their preparation methods.

KRAS G12C = KRAS G12C (Homo sapiens, UniProt P01116, G12C); conditions: as described in previous applications; cited from earlier work
various cancers = conditions: as described in previous applications; cited from earlier work
[2] = Dynamic moisture sorption analysis (DVS); type: physicochemical
Description: Dynamic Moisture Sorption Analysis (DVS)
Small scale up of Form B: Form B was small scaled up for DVS analysis, solubility and stability studies. 103.02 mg of Compound 1 in Form A was dissolved in 5 mL of MeOH (48V) at RT. After filtration, 10 mL of water was added into the filtrate. Precipitation occurred quickly. The suspension was kept stirring at RT for about 2 hours. Solid samples were collected by filtration, dried under vacuum at 50° C. overnight. 94.16 mg solid was obtained with a yield of 91%. This solid was used for the DVS testing.

[3] = Solid state stability of Form B; type: physicochemical; conditions: for Purity-7 d (Area %): open, 7 days
Description: Solid State Stability of Form B: About 10 mg of Form B was open placed at 40° C./75% RH and 60° C. for 7 days and at 25° C./92.5% RH for 10 days, respectively. Prepare samples in duplicate (n =2) per condition. The solids were analyzed by XRPD and HPLC (only for 40° C./75% RH and 60° C.).

[4] = Dissolution evaluation in FaSSIF medium; type: physicochemical
Description: Dissolution evaluation in FaSSIF medium: To evaluate in-vitro release performance of SDDs, dissolution in FaSSIF (pH=6.5±0.05) was performed, and the crystalline Compound 1 (Form B) was also tested as control.
Appropriate amount of Compound 1 or SDD (SDD-0 to SDD-8) was weighed into 40-mL glass vials respectively, and then added 10 mL of FaSSIF medium to a target API concentration of 1 mg/mL, followed by hand shake to suspend well. Place the glass bottle on 37° C. hot-stage by stirring magnetically at 200 rpm. At each time point of 10 min, 20 min, 40 min, 60 min and 120 min, 500 μL suspension was pipetted respectively and centrifuged (14,000 rpm, 3 min) to isolate supernatant and dilute with diluent for UPLC analysis. Finally, the pH value of solution (120 min) were measured by pH meter.
The UPLC method used for the dissolution analysis above is UPLC Method 2, which is shown below: […]

[5] = 1-week stability evaluation of SDD; type: physicochemical; conditions: for Appearance / Purity (%) / XRPD: 1 week; for Initial purity (%): before storage
Description: A brief description of the methods used for PLM, XRPD, Purity and mDSC analysis of the above SDD samples is shown below. • PLM analysis of the SDD samples were conducted using Nikon LV100POL equipped with 5 megapixel CCD, with the physical lens set at 20×. • For XRPD analysis, samples were spread onto the Si-substrate for XRPD test using the parameters as below: Tube: Cu: K-Alpha (λ=1.5418 Å); Generator: Voltage: 40 kV; Current: 40 mA; Scan Scope: 2 or 3 to 40 deg; Time/step(s) 0.06 s; Total time(s) 120 s or 117.36 s. • For mDSC analysis, SDD powders were weighed into Tzero aluminum sample pan from TA Instruments covered by pinhole lid for mDSC test using the parameters as below: Start temperature at 30° C.; Modulate +/−1° C. every 60 seconds; Ramp 2° C./min to 300° C. • The UPLC method used for the assay and purity analysis above is UPLC Method 1, which is shown below:
Appropriate quantity of SDDs and crystalline Compound 1 (Form B) were placed into 40-mL vials respectively.
The samples (closed) were covered by plastic cap tightly and sealed by parafilm and samples (open) were just covered by aluminum foil with pinholes. Then they were stored at 2-8° C., 25° C./60% RH and 40° C./75% RH stability chamber respectively for 1 week. The samples were analyzed by XRPD to check the physical stability, and meanwhile dissolved with diluent for UPLC analysis (UPLC Method 1) to check the chemical stability.

[6] = PCT/CN2020/137276 and PCT/CN2019/126230; cited from earlier work
[7] = Table 6, FaSSIF (10 mL) pH 6.5, 37° C., target API 1 mg/mL
[8] = Table 11, FaSSIF (10 mL) pH 6.5

Sequence of KRAS G12C (P01116 1-188 isoform P01116-2 G12C): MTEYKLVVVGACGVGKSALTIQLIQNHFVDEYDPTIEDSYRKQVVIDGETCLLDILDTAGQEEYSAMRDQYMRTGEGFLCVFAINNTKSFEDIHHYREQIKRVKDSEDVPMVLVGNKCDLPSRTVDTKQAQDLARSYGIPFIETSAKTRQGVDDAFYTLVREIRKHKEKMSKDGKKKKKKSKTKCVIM

C=CC(=O)N1C[C@H](C)N(c2nc(=O)n(-c3c(C4CC4)ncnc3C3CC3)c3nc(-c4c(N)cccc4F)c(F)cc23)C[C@H]1C [Compound 1]
pKa [1]: ~1
KRAS G12C inhibition (KRAS G12C): potent KRAS G12C inhibitor
efficacy in in vivo mouse models (various cancers): effective in treating various cancers

C=CC(=O)N1C[C@H](C)N(c2nc(=O)n(-c3c(C4CC4)ncnc3C3CC3)c3nc(-c4c(N)cccc4F)c(F)cc23)C[C@H]1C [Compound 1 (Form B)]
water absorbed (DVS) ([2]; 0-80% RH, 25° C.): ~ 0.84%
crystal form after DVS testing ([2]; XRPD after DVS): without changing of crystal form
XRPD ([3]; 25° C./92.5% RH, after 10 d): Unchanged
chemical stability ([3]; 40° C./75% RH for 7 days): chemically stable
XRPD ([3]; 40° C./75% RH, after 7 d): Unchanged
Purity-7 d (Area %) ([3]; 40° C./75% RH): 98.97 Area %
purity decrease ([3]; 60° C. for 7 days): 0.16%
XRPD ([3]; 60° C., after 7 d): Unchanged
Purity-7 d (Area %) ([3]; 60° C.): 98.82 Area %
physical stability ([3]; at test conditions (40° C./75% RH, 60° C., 25° C./92.5% RH)): physically stable
Initial Purity (Area %) ([3]; before storage): 98.98 Area %
API concentration in dissolution medium, 10 min [4, 7]: 12.5 µg/mL
API concentration in dissolution medium, 20 min [4, 7]: 13.8 µg/mL
API concentration in dissolution medium, 40 min [4, 7]: 15.0 µg/mL
API concentration in dissolution medium, 60 min [4, 7]: 15.5 µg/mL
API concentration in dissolution medium, 120 min [4, 7]: 15.9 µg/mL
pH ([4]; Table 6, pH value of solution at 120 min of FaSSIF dissolution): 6.42
API concentration in dissolution medium, 10 min [4, 8]: 10.8 µg/mL
API concentration in dissolution medium, 20 min [4, 8]: 12.5 µg/mL
API concentration in dissolution medium, 40 min [4, 8]: 14.3 µg/mL
API concentration in dissolution medium, 60 min [4, 8]: 14.2 µg/mL
API concentration in dissolution medium, 120 min [4, 8]: 14.9 µg/mL
pH ([4]; Table 11, pH of solution after FaSSIF dissolution): 6.41
API concentration in dissolution medium, 10 min ([4]; Table 15, FaSSIF (10 mL)): 8.1 µg/mL
API concentration in dissolution medium, 20 min ([4]; Table 15, FaSSIF (10 mL)): 8.4 µg/mL
API concentration in dissolution medium, 40 min ([4]; Table 15, FaSSIF (10 mL)): 9.0 µg/mL
API concentration in dissolution medium, 60 min ([4]; Table 15, FaSSIF (10 mL)): 9.1 µg/mL
API concentration in dissolution medium, 120 min ([4]; Table 15, FaSSIF (10 mL)): 9.7 µg/mL
pH ([4]; Table 15, pH of solution after FaSSIF dissolution): 6.48
Appearance ([5]; Table 8, 2-8° C., closed): Yellow powder
Purity (%) ([5]; Table 8, 2-8° C., closed): 98.81%
XRPD ([5]; Table 8, 2-8° C., closed): Crystal
Appearance ([5]; Table 8, 25° C./60% RH, open): Yellow powder
Purity (%) ([5]; Table 8, 25° C./60% RH, open): 98.86%
XRPD ([5]; Table 8, 25° C./60% RH, open): Crystal
Appearance ([5]; Table 8, 40° C./75% RH, open): Yellow powder
Purity (%) ([5]; Table 8, 40° C./75% RH, open): 98.79%
XRPD ([5]; Table 8, 40° C./75% RH, open): Crystal
Initial purity (%) ([5]; Table 8): 98.75%
Appearance ([5]; Table 12, 2-8° C., closed): Yellow powder
Purity (%) ([5]; Table 12, 2-8° C., closed): 98.81%
XRPD ([5]; Table 12, 2-8° C., closed): Crystal
Appearance ([5]; Table 12, 25° C./60% RH, open): Yellow powder
Purity (%) ([5]; Table 12, 25° C./60% RH, open): 98.86%
XRPD ([5]; Table 12, 25° C./60% RH, open): Crystal
Appearance ([5]; Table 12, 40° C./75% RH, open): Yellow powder
Purity (%) ([5]; Table 12, 40° C./75% RH, open): 98.79%
XRPD ([5]; Table 12, 40° C./75% RH, open): Crystal
Initial purity (%) ([5]; Table 12): 98.75%
relative stability among crystalline Forms A, B, C, D [6]: more stable crystalline form
